Measurements: patent US8178688B2, “Benzamidine derivatives, process for the preparation thereof and pharmaceutical composition comprising the same” (Dong Wha Pharmaceutical Co., Ltd., priority 2004, dated 2012)
Read-outs that look alike come from different tables or passages of the source.

Key:
[1] = test system: osteoclast differentiation; experiment: Inhibitory effects on osteoclast differentiation (co-culture of bone marrow cells with osteoblast, TRAP staining); assay type: cell-based, mice; details: co-culture of bone marrow cells and osteoblast, 7 days, TRAP-positive osteoclasts versus controls; for inhibition at 1 µM: Mus musculus, Osteoclast, 168 h, read-out: % inhibitory activity on osteoclastogenesis
How it was run: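 Percent inhibition versus control is based on microscope counts of TRAP-positive osteoclasts (3 or more nuclei) after 7 days of compound exposure. Cultures paired ddY mouse marrow cells with ICR calvarial osteoblasts, driven by dexamethasone 10^−7M plus vitamin D3 10^−8M, with medium and compound changed every 2–3 days.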

[2] = test system: mouse models of ovalbumin-induced asthma; experiment: Therapeutic effect in mouse model of asthma induced with ovalbumin (lung weight, total leukocytes in blood and BALF); assay type: in vivo, C57BL/6 mice; details: for Changes on the lung weight, Relative (%) / Total leukocytes in peripheral blood (×10^3/1 mm^3) / Total leukocytes in BALF (×10^5/1 ml): 200 mg/kg oral once a day; for Changes on the lung weight, Relative (%): % of body weight, vehicle control 0.780 ± 0.103, sham 0.694 ± 0.049; for Total leukocytes in peripheral blood (×10^3/1 mm^3): vehicle control 14.49 ± 0.88, sham 10.27 ± 0.93; for Total leukocytes in BALF (×10^5/1 ml): vehicle control 75.68 ± 4.67, sham 51.75 ± 2.15
Experimental: The benzamidine compounds were assated for therapeutic effect on allergic inflammation in mouse models of ovalbumin-induced asthma. Starting on the day of immunization the benzamidine compounds were dosed for 17 consecutive days. The experimental animals were re-exposed to ovalbumin 14 days after the sensitization and then sacrificed 3 days after the re-exposure. Changes in lung weight, cellular components of peripheral blood and bronchoalveolar lavage fluid, and lung histopathology were observed.
A total of 110 female C57BL/6 mice (7-week-old, SLC, Japan) were adapted to a laboratory environment for 6 days before being used in earnest experiments. While being housed at a densirt of five in a plastic cage, the experimental animals were breed in a breeding room with controlled temperature (20-25° C.) and humidity (30-35%). Under light-dark cycles of 12 hours, mice were allowed to have free access to feedstuff and tap water. While asthma was induced in 100 mice by ovalbumin, 10 mice were used as a non-treated group.
200 mg of benzamidine compounds (Methansulfonic acid or Hydrochloride) were completely dissolved in 5 ml of sterilized distilled water. The benzamidine compound in the solutions was orally administered at doses of 200 mg per kg of body weight once a day from the day of the sensitization with ovalbumin. The control group was administered with equal volumes of sterilized distilled water in the same manner.
A solution of 200 μg of ovalbumin (Grade VI; Sigma, st. Louis, Mo., USA) and 180 mg of aluminium hydroxide (Al(OH)3, dried powder gel; Aldrich, Milwaukee, USA) in 4 ml of physiological saline was allowed to stand at 4° C. overnight and was administered to the experimental animals (200 μl, abdominal injection) for sensitization. As for the non-treated group, a solution of only aluminium hydroxide in saline was injected. 15 days after sensitization, a 1.5% ovalbumin solution was sprayed in air using a nebulizer, followed by exposing the experimental animals to the spray for 10 min to induce asthma therein. The non-treated group was exposed only to saline in the same manner. All the experimental animals were sacrificed 3 days after the exposure.
On the final day of experiment, the lungs were separated form adjacent organs. The removed lungs were weight among individual animals, the relative weight of the lungs was calculated as a percentage of body weight using the following Equation 3. Relative weight of Lung(%)=(Absolute lung weight/Body weight)×100 Equation 3
On the final day of experiment, all the experimental animals were etherized and underwent laparotomy to expose the abdominal vena cava, from which 1 ml of blood was the taken. Using a hemocytometer, a blood sample was measured for total leukocyte counts in a ×10^3/1 mm^3 units.
On the final day of experiment, secretions present in bronchi and alveola were examined for cyrological constitution. After veing etherized, the experimental animals were operated to open the cervical region and the thorax. The jugular vein was allowed to bleed, followed by endotracheal intubation. 3 ml of phosphate buffered saline was injected twice through the tube and the thorax was massaged for 30 sec to obtain cell suspension from the lungs. Using a hemocytometer, a […] was measured for total leukocyte counts in a ×10^5/1 ml units.

[3] = 200 mg/kg oral once a day from sensitization, vehicle control 0.134 ± 0.012, sham 0.110 ± 0.009

| SMILES | inhibition at 1 µM ([1]; 1 μm) | Changes on the lung weight, Absolute [2, 3] | Changes on the lung weight, Relative (%) [2] | Total leukocytes in peripheral blood (×10^3/1 mm^3) [2] | Total leukocytes in BALF (×10^5/1 ml) [2] | % inhibitory activity on osteoclastogenesis ([1]; 1 μm) | Changes on the lung weight, Absolute (g) [2, 3] | inhibition at 1 µM ([1]; 1 m) |
| --- | --- | --- | --- | --- | --- | --- | --- | --- |
| Cc1sc(-c2cccnc2)nc1-c1ccc(OCCCCCOc2ccc(C(=N)NO)cc2)cc1 [Example 13, N-hydroxy-4-(5-[4-(5-methyl-2-pyridin-3-yl-1,3-thiazol-4-yl)phenoxy]pentoxy)-benzamidine] | 73.5% | 0.108 ± 0.009 g | 0.695 ± 0.075% | 14.06 ± 1.07 ×10^3/1 mm^3 | 72.75 ± 4.88 ×10^5/1 ml | – | – | – |
| CC(C)c1nc(-c2ccc(OCCCCCOc3ccc(C(=N)NO)cc3)cc2)c(CC2CCCC2)s1 [Example 47, N-hydroxy-4-(5-[4-(5-cyclopentylnnethyl-2-isopropyl-1,3-thiazol-4-yl)phenoxy]pentoxy)-benzamidine] | – | – | 0.706 ± 0.059% | 12.55 ± 1.35 # ×10^3/1 mm^3 | 62.40 ± 7.56 # ×10^5/1 ml | 90.0% | 0.122 ± 0.010 ## g | – |
| CCCN(CCC)c1nc(-c2ccc(OCCCCCOc3ccc(C(=N)NO)cc3)cc2)c(CC)s1 [Example 138, N-hydroxy-4-(5-[4-(2-dipropylamino-5-ethyl-1,3-thiazol-4-yl)phenoxy]pentoxy)-benzamidine] | – | 0.113 ± 0.011 g | 0.691 ± 0.065 % | 13.60 ± 0.83 # ×10^3/1 mm^3 | 68.83 ± 5.29 ## ×10^5/1 ml | – | – | 91% |
